Drawing on patent US6492383B1, “Thienopyrimidine and thienopyridine derivatives useful as anticancer agents” (Pfizer Inc., priority 1998, dated 2002), this text covers melting point for 37 molecules.

Counter-ions that a name gives are not always drawn.

On to `COc1cccc(Nc2ccc(Nc3ncnc4cc(-c5ccccc5)sc34)cc2)c1` [Example 66, N-(3-Methoxy-phenyl)-N′-(6-phenyl-thieno[3,2-d]pyrimidin-4-yl)-benzene-1,4-diamine], for which the melting point lay in the range of 189 to 191 °C.
The molecule `CSc1ccc(-c2cc3ncnc(Nc4ccc5[nH]ccc5c4)c3s2)cc1` [Example 9, (1H-Indol-5-yl)-[6-(4-methylsulfanyl-phenyl)-thieno[3,2-d]pyrimidin-4-yl]-amine] showed a melting point of 163 to 178 °C.
With `COc1ccc(Nc2ccc(Nc3ccnc4cc(-c5ccc(OC)nc5)sc34)cc2)cc1` [Example 87, N-(4-Methoxy-phenyl)-N′-[2-(6-methoxy-pyridin-3-yl)-thieno[3,2-b]pyridin-7-yl]-benzene-1,4-diamine], the melting point was in the range of 175 to 184 °C.
The figure for `c1nc(Nc2ccc3[nH]ccc3c2)c2sc(-c3ccc(CNCCN4CCOCC4)cc3)cc2n1` [Example 24, (1H-Indol-5-yl)-(6-{4-[(2-morpholin-4-yl-ethylamino)-methyl]-phenyl}-thieno[3,2-d]pyrimidin-4-yl)-amine] is 100 to 111 °C; for `c1coc(CNCc2ccc(-c3cc4ncnc(Nc5ccc6[nH]ccc6c5)c4s3)cc2)c1` [Example 34, [6-(4-{[(Furan-2-ylmethyl)-amino]-methyl}-phenyl)-thieno[3,2-d]pyrimidin-4-yl]-(1H-indol-5-yl)-amine] it is 125 to 134 °C; for `OCCOCCNCc1ccc(-c2cc3ncnc(Nc4ccc5[nH]ccc5c4)c3s2)cc1` (as salt: mesylate) [Example 30, 2-(2-(4-[4-(1H-Indol-5-ylamino)-thieno[3,2-d]pyrimidin-6-yl]-benzylamino}-ethoxy)-ethanol] it is 111 to 119 °C.
The figure for `COc1ccc(Nc2ccc(Nc3nc(C)nc4cc(-c5ccccc5)sc34)cc2)cc1` [Example 72, N-(4-Methoxy-phenyl)-N′-(2-methyl-6-phenyl-thieno[3,2-d]pyrimidin-4-yl)-benzene-1,4-diamine] is 181 to 185 °C; for `CCCNCc1ccc(-c2cc3ncnc(Nc4ccc5[nH]ccc5c4)c3s2)cc1` [Example 21, (1H-Indol-5-yl)-[6-(4-propylaminomethyl-phenyl)-thieno[3,2-d]pyrimidin-4-yl]-amine] it is 190 to 205 °C.
`Cc1cccc(Nc2ccc(Nc3ncnc4cc(-c5ccccc5)sc34)cc2)c1` [Example 63, N-(6-Phenyl-thieno[3,2-d]pyrimidin-4-yl)-N′-m-tolyl-benzene-1,4-diamine] yielded a melting point of 170 to 171 °C.
As for `OCCN(CCO)Cc1ccc(-c2cc3ncnc(Nc4ccc5[nH]ccc5c4)c3s2)cc1` (as salt: mesylate) [Example 29, 2-((2-Hydroxy-ethyl)-{4-[4-(1H-indol-5-ylamino)-thieno[3,2-d]pyrimidin-6-yl]-benzyl}-amino)-ethanol], the melting point lay within 110 to 127 °C.
The figure for `COC(=O)CCNCc1ccc(-c2cc3ncnc(Nc4ccc5[nH]ccc5c4)c3s2)cc1` (as salt: HCl) [Example 17, 3-{4-[4-(1H-Indol-5-ylamino)-thieno[3,2-d]pyrimidin-6-yl]-benzylamino}-propionic Acid Methyl Ester] is 105 to 118 °C; for `Fc1ccc(-c2cc3ncnc(Nc4ccc5[nH]ccc5c4)c3s2)cc1` [Example 4, [6-(4-Fluoro-phenyl)-thieno[3,2-d]pyrimidin-4-yl]-(1H-indol-5-yl)-amine] it is 193 to 205 °C; for `Cc1ccc(Nc2ccc(Nc3ncnc4cc(-c5ccccc5)sc34)cc2)cc1` [Example 64, N-(6-Phenyl-thieno[3,2-d]pyrimidin-4-yl)-N′-p-tolyl-benzene-1,4-diamine] it is 221 to 222 °C.
On to `COc1ccc(-c2cc3ncnc(Nc4ccc5[nH]ccc5c4)c3s2)cc1` [Example 5, (1H-Indol-5-yl)-[6-(4-methoxy-phenyl)-thieno[3,2-d]pyrimidin-4-yl]-amine], for which the melting point lay in the range of 150 to 180 °C.
With `O=C1CCCN1CCCNCc1ccc(-c2cc3ncnc(Nc4ccc5[nH]ccc5c4)c3s2)cc1` [Example 35, 1-(3-{4-[4-(1H-Indol-5-ylamino)-thieno[3,2-d]pyrimidin-6-yl]-benzylamino}-propyl)-pyrrolidin-2-one], the melting point lay in the range of 139 to 146 °C.
Next, `COc1ccc(Nc2ccc(Nc3ncnc4cc(-c5ccccc5)sc34)cc2)cc1OC` [Example 65, N-(3,4-Dimethoxy-phenyl)-N′-(6-phenyl-thieno[3,2-d]pyrimidin-4-yl)-benzene-1,4-diamine]: 160 to 161 °C.
Regarding `COCC1CCCN1Cc1ccc(-c2cc3ncnc(Nc4ccc5[nH]ccc5c4)c3s2)cc1` (stereo not shown) [Example 42, (1H-Indol-5-yl)-{6-[4-(2-methoxymethyl-pyrrolidin-1-ylmethyl)-phenyl]-thieno[3,2-d]pyrimidin-4-yl}-amine], the melting point is 161 to 177 °C.
The figure for `c1nc(Nc2ccc3[nH]ccc3c2)c2sc(-c3ccc(CNC4CC4)cc3)cc2n1` [Example 40, [6-(4-Cyclopropylaminomethyl-phenyl)-thieno[3,2-d]pyrimidin-4-yl]-(1H-indol-5-yl)-amine] is 176 to 180 °C.
Regarding `Cc1ccc(-c2cc3ncnc(Nc4ccc5[nH]ccc5c4)c3s2)cc1` [Example 6, (1H-Indol-5-yl)-(6-p-tolyl-thieno[3,2-d]pyrimidin-4-yl)-amine], the melting point was 200 to 220 °C.
The figure for `CN(C)CCNCc1ccc(-c2cc3ncnc(Nc4ccc5[nH]ccc5c4)c3s2)cc1` [Example 18, N-{4-[4-(1H-Indol-5-ylamino)-thieno[3,2-d]pyrimidin-6-yl]-benzyl}-N′,N′-dimethyl-ethane-1,2-diamine] is 170 to 183 °C.
With `Cc1cc2cc(Nc3ncnc4cc(-c5ccccc5)sc34)ccc2[nH]1` [Example 68, (2-Methyl-1H-indol-5-yl)-(6-phenyl-thieno[3,2-d]pyrimidin-4-yl)-amine], the melting point was in the range of 218 to 220 °C.
The figure for `O=Cc1c[nH]c2ccc(Nc3ncnc4cc(-c5ccccc5)sc34)cc12` [Example 74, 5-(6-Phenyl-thieno[3,2-d]pyrimidin-4-ylamino)-1H-indole-3-carbaldehyde] is 174 to 175 °C.
The figure for `COc1ccc(Nc2ccc(Nc3ncnc4cc(-c5cccs5)sc34)cc2)cc1` [Example 81, N-(4-Methoxy-phenyl)-N′-(6-thiophen-2-yl-thieno[3,2-d]pyrimidin-4-yl)-benzene-1,4-diamine] is 231 to 240 °C.
Next, `Fc1ccc(-c2cc3ncnc(Nc4ccc5[nH]ccc5c4)c3s2)cc1Cl` [Example 12, [6-(3-Chloro-4-fluoro-phenyl)-thieno[3,2-d]pyrimidin-4-yl]-(1H-indol-5-yl)-amine]: 175 to 183 °C; `c1nc(Nc2ccc3[nH]ccc3c2)c2sc(-c3ccc(CN4CCOCC4)cc3)cc2n1` [Example 37, (1H-Indol-5yl)-[6-(4-morpholin4-ylmethyl-phenyl)-thieno[3,2-d]pyrimidin-4-yl]-amine]: 141 to 152 °C.
`Cc1cccc(Nc2ncnc3cc(-c4ccccc4)sc23)c1` (as salt: HCl) [Example 92, (6-Phenyl-thieno[3,2-d]pyrimidin-4-yl)-m-tolyl-amine] gave a melting point of 238 to 241 °C.
Regarding `Cc1c[nH]c2ccc(Nc3ncnc4cc(-c5ccccc5)sc34)cc12` [Example 82, (3-Methyl-1H-indol-5-yl)-(6-phenyl-thieno[3,2-d]pyrimidin-4-yl)-amine], the melting point lay within 221 to 223 °C.
The figure for `COc1ccc(-c2cc3ncnc(Nc4ccc5[nH]ccc5c4)c3s2)cn1` [Example 86, (1H-Indol-5-yl)-[6-(6-methoxy-pyridin-3-yl)-thieno[3,2-d]pyrimidin-4-yl]-amine] is 243 to 249 °C.
In the case of `OCCNCCNCc1ccc(-c2cc3ncnc(Nc4ccc5[nH]ccc5c4)c3s2)cc1` (as salt: mesylate) [Example 31, 2-(2-{4-[4-(1H-indol-5-ylamino)-thieno[3,2-d]pyrimidin-6-yl]-benzylamino}-ethylamino)-ethanol], the melting point lay within 78 to 95 °C.
In the case of `Cc1nc(Nc2ccc3[nH]ccc3c2)c2sc(-c3ccccc3)cc2n1` [Example 71, (1H-Indol-5-yl)-(2-methyl-6-phenyl-thieno[3,2-d]pyrimidin-4-yl)-amine], the melting point is 205 to 210 °C.
Molecule `c1nc(Nc2ccc3[nH]ccc3c2)c2sc(-c3ccc(CNCCN4CCNCC4)cc3)cc2n1` [Example 23, (1H-Indol-5-yl)-(6-{4-[(2-piperazin-1-yl-ethylamino)-methyl]-phenyl}-thieno[3,2-d]pyrimidin-4-yl)-amine] showed a melting point of 178 to 191 °C.
Consider `c1nc(Nc2ccc3[nH]ccc3c2)c2sc(-c3ccsc3)cc2n1` [Example 8, (1H-indol-5-yl)-(6-thiophen-3-yl-thieno[3,2-d]pyrimidin-4-yl)-amine], for which the melting point is 178 to 189 °C.
Take `c1ccc(-c2cc3ncnc(Nc4ccc5[nH]ccc5c4)c3s2)cc1` [Example 2, (1H-indol-5-yl)-(6-phenyl-thieno[3,2-d]pyrimidin-4-yl)-amine]: the melting point is 255 to 258 °C (dec.).
The figure for `Clc1ccc(-c2cc3ncnc(Nc4ccc5[nH]ccc5c4)c3s2)cc1` [Example 3, [6-(4-Chloro-phenyl)-thieno[3,2-d]pyrimidin-4-yl]-(1H-indol-5-yl)-amine] is 190 to 210 °C; for `COCCCNCc1ccc(-c2cc3ncnc(Nc4ccc5[nH]ccc5c4)c3s2)cc1` [Example 22, (1H-Indol-5-yl)-(6-{4-[(3-methoxy-propylamino)-methyl]-phenyl}-thieno[3,2-d]pyrimidin-4-yl)-amine] it is 160 to 175 °C.
As for `CCOC(=O)CNC(=O)CNCc1ccc(-c2cc3ncnc(Nc4ccc5[nH]ccc5c4)c3s2)cc1` [Example 38, (2-{4-[4-(1H-indol-5-ylamino)-thieno[3,2-d]pyrimidin-6-yl]-benzylamino}-acetylamino)-acetic acid ethyl ester], the melting point lay in the range of 98 to 115 °C.
As to `CCc1ccc(-c2cc3ncnc(Nc4ccc5[nH]ccc5c4)c3s2)cc1` [Example 13, [6-(4-Ethyl-phenyl)-thieno[3,2-d]pyrimidin-4-yl]-(1H-indol-5-yl)-amine], the melting point lay in the range of 171 to 182 °C.

For orientation: melting point means the temperature of the solid-liquid transition.
